Earlier results on 1 compound are cited in US20070207193A1, “Novel application of topical anesthetics for modulation of neurogenic tremor” (priority 2006, published 2007).

The test system of one data set is Parkinsonian tremor. The following applies: ten patients undergoing stereotactic thalamotomy.
Another data set deals with subthalamic nucleus. The following applies: applied centrally in the subcortical areas of the brain.

Take `CCN(CC)CC(=O)Nc1c(C)cccc1C` [lidocaine]: in the data set with Parkinsonian tremor, the “cases in which microinjection replicated the effects of microstimulation” value was “⅔”. For the same compound, in the data set on subthalamic nucleus, the effect on tremor result is recorded as “ameliorated tremor”.
